Results on 5 compounds are retold here after patent publication EP1024807B1, “USE OF THE COMPOUND 2-METHOXYPHENYL-1-METHYL-5P-METHYLBENZOYL-PYRROL-2-ACETAMIDO ACETATE FOR THE PRODUCTION OF AN ANTI-INFLAMMATORY DRUG WITH PREVENTION OF GASTRIC HYPERSECRETION AND RENAL IMPAIRMENT” (MEDOSAN Ricerca S.r.l., priority 1997, dated 1999).

Series [1] concerns Rats. In words: Adjuvant arthritis (joint diameter and patellar bone mass). It counts as in vivo. The following applies: for % Change: ([left-right]/right)X100. The protocol:
The drugs were administered daily by oral gavage for 4 days (day 0-3); piroxicam and MED 15 were dissolved in 5% Gum arabic + 0.01% Tween 80, and administered in a volume of 0.5ml. Piroxicam was administered as 3mg/kg and MED 15 was administered as 25, 50 and 100mg/kg doses. Table 8 bis illustrating dosage regimes. L=left stifle joint, R=Right stifle joint.
Under halothane anaesthesia, rats received 200µg of heat-killed finely ground Mycobactyerium tubercolosis in 25µl (80mg/10ml sterile saline) injected intra-articulary into the left stifle joint. The contralateral joint received 25µl 0.9% sterile saline. Control animals received 25µl of 0.9% sterile saline in both knees. SGE 50µl microsyringes with a volume lock calibrated at 25µl were used with 30G stainless steel needles. Solutions were prepared sterile, and aseptic technique was used throughout, with sterilisation of syringes between groups.
The rats were killed by carbon dioxide suffocation. The body weight was noted and the skin overlying the stifle joints was divided and the joint diameters assessed in mm using Mitutoyo vernier callipers (530-312, 0.02mm).
The patellae were dissected, weighed (Sartorius, 0.01mg) and then immersed in 1ml digestion buffer (see below) to remove soft tissue.
Digestive buffer was prepared fresh to the following formula; disodium hydrogen orthophosphate 20mM, EDTA 1mM and diothiothreitol at 2mM. Papain (EC 3.4.22.2) was added at a concentration of 6U/ml. Each patella was digested in 1ml of digestive buffer at 56°C for 4 hours. The residual paterllar bones were dried (100°C 24 hours) and weighed (Sartorius 0.01mg).
Results are presented as follows: left and right parameter alone, the difference between arthritic and contralateral control joint (left-right); and % difference between arthritic and control joints ([left-right]/right]X100).
Calculations were carried out using the spreadsheet program Lotus 123. Statistical comparisons were made between the absolute differences using INSTAT Mann Whitney unpaired two-tailed statistical test.

For series [2], the system named is patients. The settings on record: 336 patients, Diclofenac 100mg, cited from earlier work; for Suspensions of treatment: number of patients, 180 days of treatment; for % of totale: suspensions of treatment, 180 days.
For series [3], the system named is Rats. Nature of the series: Carrageenan pleurisy, exudate volume at 4 hours. It counts as in vivo. The protocol:
Compounds were administered orally 1 hour prior to and 1 hour post pleurisy induction in a volume of 0.5 ml 1% gum tragacanth. Indomethacin was used at 3 mg/kg. MED 15 was used at 25, 50 and 100 mg/kg.
A 1% solution of carrageenan in sterile saline was prepared. The solution was placed in an incubator at 37°C for half an hour to allow complete hydration of the carrageenan. The solution was then mixed to homogeneity.
A 21Gx40mm syringe needle was reduced in length to 5mm and fitted to a 1ml syringe containing the irritant. Rats were lightly anaesthetised with halothane. Each animal was placed on its left side. The skin over the thorax was lifted with and a 1cm incision made through the skin with a pair of scissors. The wound was opened to expose the underlying muscle. Using a scalpel, a 2-3mm incision was made into the muscle of the 5th-6th intercostal space. A volume of 0.15ml of carrageenan solution was then injected into the pleural cavity. The wound was closed with a 11mm Michel clip and the animal allowed to recover from the anaesthetic. Groups of animals were killed 4 hours after pleurisy induction.
Lavage solution: One part of 3.15% trisodium citrate solution, mixed with nine parts of Hank's balanced salt solution.
Rats were killed by over exposure to carbon dioxide. For each rat the skin over the thorax was moistened with IMS alcohol. The skin over the sternum was then lifted and a 5cm cut made, to expose the musculature of the upper abdomen and thoracic cavity. The muscle overlying the xiphisternum was lifted with tissue forceps and a 1cm cut made through the muscle to reveal the cartilage. This was then lifted and the diaphragm perforated just beneath the cartilage. Two cuts were then made through the rib cage either side of the cartilage to form a flap which could be folded back to expose the thoracic cavity.
Using a syringe, 1ml of lavage fluid was introduced into the thoracic cavity. The fluid was aspirated 2-3 times with a 3ml pastette to wash the cavity, before being collected into separate 10ml conical-based plastic test-tubes. Any blood contaminated fluids were rejected.
The mass of each tube with fluid was determined. By subtracting the mass of an empty tube from these values, and assuming a density for the fluid of 1g/cm^3, the fluid volume was quantified.
Results were analysed by ANOVA followed by Bonferroni T-test. Values of p<0.05 were considered significant.
Dosing was one hour prior to and one hour post pleurisy induction and inflammation was assessed at 4 hours.

In series [4] the test system is patients. Nature of the series: Clinical trials: tolerability, adverse events and suspensions of treatment. It counts as in vivo, man. The settings on record: 31 comparative and 6 non-comparative clinical trials, 1596 patients. From the text:
Interest in the amtolmetin guacyl molecule arose following a thorough analysis of the results of 31 comparative and 6 non-comparative clinical trials involving 1596 patients. […] Turthermore the physician, being aware of administering an NSAID, was expecting adverse events and could not be expected to be an impartial observer. The few cases of gastro-intestinal phenomena reported with amtolmetin guacyl were transitory and in no event accompanied by the presence of occult blood in the stools. Moreover, even in the presence of a reported side-effect it was almost never necessary to suspend treatment (0.4% of suspensions).
Following are summarized the results obtained on a total of 1596 patients in 37 clinical trials.
Confirmation of the above described advantages is the very low incidence of treatment suspension for adverse events found in clinics (Table 17), which is not the case for most of NSAIDs known in the art (Table 18).

For series [5], the system named is Rats. In words: Diuresis in normally hydrated rats. In kind it is in vivo. The protocol:
In the course of various studies conducted on animals to show the lack of renal impairment, a test was carried out to compare the diuresis in normally hydrated rats treated orally for 8 consecutive days with amtolmeting guacyl and diclofenac, which is also a NSAID. […] It is to be stressed that the behaviour of diclofenac is completely in line with the behaviour of a NSAID as known in the art, that is to say to markedly reduce the diuresis, while that of amtolmeting guacyl is completely unforeseeable.
Repeated doses (one per day) for 8 days increased diuresis in the treated rats by 35% (see fig. 13).

For series [6], the system named is post-traumatic arthralgia. In words: Clinical comparison in post-traumatic arthralgia. In kind it is in vivo, man. From the text: The same can be said in the treatment of post-traumatic arthralgia.
For a further series, the system named is gastric PGE2. Nature of the series: Effect on gastric PGE2 in the rat. In kind it is in vivo. From the text:
Moreover, as with all the NSAIDs currently aveilable, it inhibits gastric PGE2 in the rat, albeit to a lesser degree than ASA (Table 7).

A value given as a limit tells only on which side of the number the result lay.

As for `CN1C(C(=O)Nc2ccccn2)=C(O)c2ccccc2S1(=O)=O` [Piroxicam, reference compound], the “Swelling Diameter difference (L-R)” value in the series with Rats [1] (3mg/kg daily oral, day 0-3) worked out at 1.67 mm. The “Joint diameter (mm) Left” value with Rats [1] (3mg/kg daily oral, day 0-3, left = arthritic joint) is on record as 10.41 mm. Besides, in the series on Rats [1] (3mg/kg daily oral, day 0-3, right = saline control joint), the “Joint diameter (mm) Right” value amounted to 8.74 mm. The “% Change” value in the series on Rats [1] (joint diameter, 3mg/kg daily oral) is on record as 19.15%; with Rats [1] (patellar bone mass, 3mg/kg daily oral), -27.74%. Further, in the series with Rats [1] (patellar bone mass, arthritic groups), the “protection against bone loss” value is “greatest protection against bone loss”. Besides, in the series with Rats [1] (patellar bone, 3mg/kg daily oral), the “Bone loss Left-Right” value is -1.31 mg. Also, the “Bone mass (mg) Left” value in the series with Rats [1] (patellar bone, 3mg/kg daily oral, left = arthritic joint) was found to be 3.07 mg. For the same compound, the “Bone mass (mg) Right” value with Rats [1] (patellar bone, 3mg/kg daily oral, right = saline control joint) is given as 4.21 mg.
As to `Cc1cnc(NC(=O)C2=C(O)c3ccccc3S(=O)(=O)N2C)s1` [Meloxicam], in the series on patients [2], the Suspensions of treatment is given as 42 and the “% of totale” value is listed as 12,4%.
For the compound `COc1ccc2c(c1)c(CC(=O)O)c(C)n2C(=O)c1ccc(Cl)cc1` [Indomethacin, reference compound], in the series with Rats [3] (3mg/kg orally 1 hour prior to and 1 hour post induction, 4 hour, control 0.94±0.04), the “Exudate volume” value is 0.47 ± 0.11 mL. Further, in the series with Rats [3] (3mg/kg, compared to gum tragacanth control), the “reduction in exudate volume” value was found to be 50%. In addition, the “incidence of adverse events involving the stomach” value with patients [4] is at least 30%.
In turn, `O=C(O)Cc1ccccc1Nc1c(Cl)cccc1Cl` [Diclofenac, reference compound] gave a decreased diuresis with Rats [5] (single dose, average) of 10%. Moreover, the diuresis entry with Rats [5] (treated orally for 8 consecutive days, fig. 13) was “clear decrease”. Further, in series [6], the duration of effect amounted to 3 h, the latency time was determined as 20 min and the “time to reach peak effect” value came to 1 h. Further, in the series with patients [2], the Suspensions of treatment is recorded as 63 and the “% of totale” value is 18,7%.
With `CC(=O)Oc1ccccc1C(=O)O` [ASA, acetyl salicylic acid, reference compound], the “%inhibition” value with gastric PGE2 (gastric PGE2 versus controls) came out at 86.7%. Moreover, in the series on gastric PGE2 (gastric tissue, rat, controls 108.7±23.9), the “PGE2 (ngtg^Δ tissue)±S.E.” value was 14.4±4.5 nanograms for gram of tissue.
